Measured values reported in paper PMC9085577, “Discovery of a Potent and Orally Active Dual GPBAR1/CysLT1R Modulator for the Treatment of Metabolic Fatty Liver Disease” (Frontiers in Pharmacology, 2022).
≈ marks a conversion by molar mass, not a printed value. Like-named read-outs stand apart in the source and are kept apart here.

Tests used:
Human CysLT1 (LTD4) = molecular target: T1, Human CysLT1 (LTD4) (Homo sapiens, UniProt Q9Y271); test: Human CysLT1 (LTD4) antagonist effect cellular functional assay (Ca2+ fluorescence, Eurofins Cerep-Panlabs); format: cell-based; conditions: for IC50: 0.1 nM LTD4
T1 construct: Eurofins Cerep-Panlabs (France), contract assay
T1 sequence (Q9Y271 1-337): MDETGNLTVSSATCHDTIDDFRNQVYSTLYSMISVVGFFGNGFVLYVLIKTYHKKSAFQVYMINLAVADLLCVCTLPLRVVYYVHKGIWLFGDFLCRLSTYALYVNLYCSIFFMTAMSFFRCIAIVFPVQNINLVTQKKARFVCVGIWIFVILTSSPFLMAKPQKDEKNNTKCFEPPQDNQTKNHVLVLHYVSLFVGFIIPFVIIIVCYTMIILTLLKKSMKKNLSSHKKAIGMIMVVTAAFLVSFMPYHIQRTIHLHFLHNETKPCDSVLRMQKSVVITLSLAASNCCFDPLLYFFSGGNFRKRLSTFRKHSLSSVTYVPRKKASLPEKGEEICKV
Experimental: Human CysLT1 (LTD4) (h) (antagonist effect) Cellular Functional Assay. These assays were performed at Eurofins Cerep-Panlabs (France). The cells were suspended in DMEM buffer (Invitrogen) and then distributed in microplates at a density of 3.104 cells/well. […] Thereafter, the assay plates are positioned in a microplate reader (CellLux, PerkinElmer), which was used for the addition of the test compound or HBSS buffer, then 5 min later, 0.1 nM LTD4 or HBSS buffer (basal control), and measured the changes in fluorescence intensity, which varies proportionally to the free cytosolic Ca^2+-ion concentration.

human GPBAR1 = molecular target: T2, human GPBAR1 (Homo sapiens, UniProt Q8TDU6); test: GPBAR1 CRE-luciferase reporter transactivation assay in HEK-293T cells; format: cell-based; conditions: HEK-293T; compound 10 µM relative to TLCA (10 μM) as 100, CRE transactivation, HEK293T cells; read-out: GPBAR1 Eff (%) maximum efficacy
T2 construct: expressed in transfected cells; host or cells: HEK-293T cells, transient transfection (Fugene HD)
T2 sequence (Q8TDU6 1-330): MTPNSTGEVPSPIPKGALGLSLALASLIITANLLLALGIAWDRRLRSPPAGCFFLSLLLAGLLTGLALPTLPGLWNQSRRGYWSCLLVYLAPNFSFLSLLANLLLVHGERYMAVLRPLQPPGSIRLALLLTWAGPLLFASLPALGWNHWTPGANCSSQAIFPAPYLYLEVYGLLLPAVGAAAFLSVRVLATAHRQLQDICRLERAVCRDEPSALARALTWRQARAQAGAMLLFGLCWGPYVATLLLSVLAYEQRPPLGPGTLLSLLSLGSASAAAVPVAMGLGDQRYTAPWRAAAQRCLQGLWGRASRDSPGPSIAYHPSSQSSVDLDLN
Experimental: GPBAR1. […] At 18 h post stimulations, cellular lysates were assayed for luciferase and Renilla activities using the Dual-Luciferase Reporter assay system (E1980, Promega Madison WI). Luminescence was measured using Glomax 20/20 luminometer (Promega, Madison WI). Luciferase activities were normalized with Renilla activities.
Agonistic activities of compounds on GPBAR1 were compared to TLCA, which was set as 100%.

[1] = parameters: method as in Fiorillo et al., 2021; conditions: pH 7.4; ref Fiorillo et al., 2021; cited from earlier work
[2] = parameters: method as in Fiorillo et al., 2021; conditions: ref Fiorillo et al., 2021; cited from earlier work
[3] = parameters: method as in Fiorillo et al., 2021; conditions: ref Fiorillo et al., 2021; cited from earlier work; remark: listed apart in the source
[4] = parameters: method as in Fiorillo et al., 2021; conditions: aqueous, pH 7.4; ref Fiorillo et al., 2021; cited from earlier work
[5] = antagonist effect, read-out: CysLT1R IC50

CysLT1R efficacy (percent inhibition of the control response to 0.1 nM LTD4) (Human CysLT1 (LTD4); antagonist effect) | IC50 (Human CysLT1 (LTD4); [5]) | Emax (human GPBAR1) | SMILES | other results
76 ± 9.6% | 1680 ± 280 nM | 20.5 ± 2.4% | COC(=O)CCCCOc1cccc(OCc2ccc3ccccc3n2)c1 [Compound 7] | –
92.8 ± 2.3% | – | 18.3 ± 4.8% | O=C(O)CCCOc1cccc(OCc2ccc3ccccc3n2)c1 [Compound 11, 4-(3-(quinolin-2-ylmethoxy)phenoxy)-butanoic acid] | –
108.6 ± 1.8% | 310 ± 240 nM | 12.8 ± 3.3% | OCCCCOc1cccc(OCc2ccc3ccccc3n2)c1 [Compound 12, 4-(3-(quinolin-2-ylmethoxy)phenoxy)-butan-1-ol] | –
– | – | 36.7 ± 3% | O=C(O)c1ccc(-c2ccc(OCc3ccc4ccccc4n3)cc2)cc1 [Compound 5, 4'-(quinolin-2-ylmethoxy)-[1,1′-biphenyl]-4-carboxylic acid] | –
0.8 ± 1.5% | – | 64.9 ± 13% | OCc1ccc(-c2ccc(OCc3ccc4ccccc4n3)cc2)cc1 [Compound 6, (4'-(quinolin-2-ylmethoxy)-[1,1′-biphenyl]-4-yl)-methanol] | –
106.9 ± 1.6% | 360 ± 580 nM | 30.8 ± 7.5% | OCCCCCOc1cccc(OCc2ccc3ccccc3n2)c1 [Compound 9, 5-(3-(quinolin-2-ylmethoxy)phenoxy)-pentan-1-ol] | –
99.6 ± 2.0% | 900 ± 500 nM | 12 ± 1.3% | O=C(O)CCCCOc1cccc(OCc2ccc3ccccc3n2)c1 [Compound 8] | –
59 ± 3.6% | – | 2.1 ± 0.06% | OCc1cccc(-c2ccc(OCc3ccc4ccccc4n3)cc2)c1 [Compound 3, (4'-(quinolin-2-ylmethoxy)-[1,1′-biphenyl]-3-yl)-methanol] | –
– | – | 13.5 ± 1% | COC(=O)c1ccc(-c2ccc(OCc3ccc4ccccc4n3)cc2)cc1 [Compound 4, Methyl 4'-(quinolin-2-ylmethoxy)-[1,1′-biphenyl]-4-carboxylate] | –
– | – | – | CCCCCC(O)c1cccc(OCc2ccc3ccccc3n2)c1 (stereo not drawn) [REV5901, alpha-pentyl-3-[2-quinolinylmethoxy] benzyl alcohol] | IC50 (Human CysLT1 (LTD4); CysLT1R IC50, antagonist effect): 2500 ± 1200 nM; LogD [1]: 3.1; S9 fraction Clint [2]: 40 μl/min/mg protein; S9 fraction t1/2 [2]: 57 min; Microsomes Clint [3]: 63 μl/min/mg protein; Microsomes t1/2 [3]: 37 min; Solubility [4]: 39.3 µM (≈ 13.2 µg/mL)
92.1 ± 3.4% | 1550 ± 430 nM | 20.2 ± 4.5% | COC(=O)CCCOc1cccc(OCc2ccc3ccccc3n2)c1 [Compound 10, Methyl 4-(3-(quinolin-2-ylmethoxy)phenoxy)-butanoate] | –
– | – | 56.9 ± 7.8% | COC(=O)c1cccc(-c2ccc(OCc3ccc4ccccc4n3)cc2)c1 [Compound 1, Methyl 4'-(quinolin-2-ylmethoxy)-[1,1′-biphenyl]-3-carboxylate] | –
